In US20260335327A1, “IDH MUTATIONS AS BIOMARKERS FOR ZOTIRACICLIB THERAPY” (Cothera Bioscience, Inc., priority 2022, published 2026):

Legend:
Format in all cases: cell-based, Human
Hccc-9810 = experiment: Apoptosis assay (Annexin V/PI staining, FACS), Hccc-9810 cells
Method: (§1) Cell Culture. Human Chondrosarcoma cell line HT-1080 was cultured in MEM (Gibco, USA) supplemented with 10% fetal bovine serum (FBS, Gemini, USA). Human cholangiocarcinoma cell lines RBE, Hccc-9810, and Hucct-1 were cultured in RPMI1640 (Hyclone, USA) supplemented with 10% FBS. Cells were incubated at 37 °C in 5% CO2.
(§2) Apoptosis Assay. HT-1080, RBE, Hccc-9810, and Hucct-1 cells were treated with the indicated drugs. Apoptosis was detected by Annexin V/PI staining kit (Thermo Fisher) according to the manufacturer's instructions. Briefly, cells were plated at a density of 1× 10^5 cells/well in media with 10% FBS with desired concentrations of TG02. At 48/72-hour post-treatment the cells were harvested and tested for apoptosis by Annexin V and PI staining. Cell analysis was performed using a FACSCelesta (BD).

mutant IDH1 cancer cells = experiment: Overall conclusion on DNA damage and cell-killing in mutant IDH1 versus homozygous wild-type IDH1 cancer cells; settings: mutant IDH1 relative to homozygous wild-type IDH1 cancer cells
Method: as §2
(§3) Comet assay. The comet assay is common technique for measurement of DNA damage in individual cells. Under an electrophoretic field, damaged cellular DNA (containing fragments and strand breaks) is separated from intact DNA, yielding a classic “comet tail” shape under the microscope. DNA damage was assayed by OxiSelect™ Comet Assay Kit (CELL BIOLABS, INC.) according to the manufacturer's instructions. Briefly, comet agarose was pipetted onto the OxiSelect™ Comet Slide to form a base layer. Cells were combined with OxiSelect™ Comet agarose at 37 °C, then the agarose/cell mixture was pipetted onto the top of the base layer. Cells were treated with lysis buffer and alkaline solution. Electrophoresis was performed under neutral conditions. […]
Western blot. […] The concentrations of protein in cell lysate were determined by Micro BCA™ Protein Assay Kit (ThermoFisher, USA). […]

Hucct1^R132H/+ cells = experiment: Neutral comet assay (Tail moment), Hucct1^R132H/+ cells; settings: 0.2 μM TG02, 48 h, compared with Hucct1 treated with TG02, FIG. 7A
Method: as §1, §3
In FIG. 7A, IDH1-mutant Hucct1 cells (Hucct1^R132H/+) were generated by lentivirus expressing IDH1 R132H. […] Quantification of Tail moment in neutral comet assay is presented. ns: no significant differences; ***: P<0.001, ****: P<0.0001, compared with NC; #: P<0.05, compared with Hucct1 cells treated with TG02. […]

RBE = experiment: Apoptosis assay (Annexin V/PI staining, FACS), RBE cells; settings: 0.2 μM TG02; IDH1-mutant cholangiocarcinoma RBE; compared with IDH1-WT (Hucct-1); FIGS. 2A-2B
Method: as §1, §2

[1] = tested on: Hucct-1 cells transfected with IDH1 R132H plasmid; experiment: Apoptosis assay (FACS), Hucct-1 cells transfected with IDH1 R132H plasmid; settings: 0.1 μM TG02, 72 h; Hucct-1 transfected with IDH1 R132H; FIG. 3A
Method: as §1, §2
Transfection. The day before transfection, cells (~2×10^5/well) were seeded in a 6-well plate. The cells were cultured in a 37 °C in 5% CO2 incubator overnight. The old medium was removed and 2 ml of transfection medium was added. 50 μl opti-MEM was added to a tube, and then 2 μg plasmid DNA Mix solution was mixed by vortexing. 4 μl PEI solution was added to this tube, and the solution was mixed by gently pipetting up and down. The samples were incubated at room temperature for 15 min to allow the PEI/DNA complexes to form. […]

[2] = tested on: mutant IDH1 (HT-1080) cells; experiment: Neutral comet assay (DNA damage), HT-1080 cells; settings: for rescue of TG02-induced DNA damage: exogenous α-KG or AG-120 with TG02, 48 h
Method: as §1
Comet assay. The comet assay is common technique for measurement of DNA damage in individual cells. Under an electrophoretic field, damaged cellular DNA (containing fragments and strand breaks) is separated from intact DNA, yielding a classic “comet tail” shape under the microscope. DNA damage was assayed by OxiSelect™ Comet Assay Kit (CELL BIOLABS, INC.) according to the manufacturer's instructions. Briefly, comet agarose was pipetted onto the OxiSelect™ Comet Slide to form a base layer. Cells were combined with OxiSelect™ Comet agarose at 37 °C, then the agarose/cell mixture was pipetted onto the top of the base layer. Cells were treated with lysis buffer and alkaline solution. Electrophoresis was performed under neutral conditions. The slides were viewed by epifluorescence microscopy using a FITC filter.
Tail Moment=(100×Tail DNA Intensity/Cell DNA Intensity)×Tail Moment Length

HT-1080 = experiment: Apoptosis assay (Annexin V/PI staining, FACS), HT-1080 cells; settings: 0.2 μM TG02; IDH1-mutant chondrosarcoma HT-1080; compared with IDH1-WT (Hucct-1); FIGS. 2A-2B
Method: as §1, §2

Hucct1R132H/+ cells = experiment: Western blot of phosphorylated γH2AX (marker of DSBs), Hucct1^R132H/+ cells; settings: 0.2 μM TG02, 16 h, FIG. 7B
Method: Western blot. […] Then the pellets were lysed in lysis buffer (Beyotime, China) which additionally included a protease inhibitor cocktail (Beyotime, China) and phosphatase inhibitor cocktail (Beyotime, China). Cells were incubated on ice for 30 minutes and then centrifuged at 4 °C, 12000 rpm for 10 minutes to obtain the supernatant as cell lysate. The concentrations of protein in cell lysate were determined by Micro BCA™ Protein Assay Kit (ThermoFisher, USA). 4×SDS-PAGE Sample Loading Buffer (SolarBio, China) was added into cell lysate contained 25 μg of total protein and, after boiling, the mixture was electrophoresed in polyacrylamide gel. After electrophoresis, proteins on the gel were transferred to PVDF membrane, and the membrane was cut at position close to the molecular weights of proteins whose expression was examined (pH2AX (CST, USA), GAPDH (ZSGB-BIO, China)).
In FIG. 7A, IDH1-mutant Hucct1 cells (Hucct1^R132H/+) were generated by lentivirus expressing IDH1 R132H. Hucct1, Hucct1^R132H/+ and HT-1080 cells were treated with 0.2 μM TG02 or 0.1% DMSO for 48 h. Cells were used to comet assays. Quantification of Tail moment in neutral comet assay is presented. ns: no significant differences; ***: P<0.001, ****: P<0.0001, compared with NC; #: P<0.05, compared with Hucct1 cells treated with TG02. […]

[3] = tested on: mutant IDH1 cells (Hccc-9810); experiment: Western blot of pH2AX (marker of DNA damage), Hccc-9810 cells; settings: exogenous AG-120 with TG02, 48 h; WB; FIG. 6
Method: as §1
Western blot. Hccc-9810 and Hucct-1 cells treated with TG02 or AG120 as indicated for 48 h (0.1% DMSO was added as control) were harvested and centrifuged at 500 g for 5 minutes to obtain cell pellets. Then the pellets were lysed in lysis buffer (Beyotime, China) which additionally included a protease inhibitor cocktail (Beyotime, China) and phosphatase inhibitor cocktail (Beyotime, China). Cells were incubated on ice for 30 minutes and then centrifuged at 4 °C, 12000 rpm for 10 minutes to obtain the supernatant as cell lysate. The concentrations of protein in cell lysate were determined by Micro BCA™ Protein Assay Kit (ThermoFisher, USA). 4×SDS-PAGE Sample Loading Buffer (SolarBio, China) was added into cell lysate contained 25 μg of total protein and, after boiling, the mixture was electrophoresed in polyacrylamide gel. After electrophoresis, proteins on the gel were transferred to PVDF membrane, and the membrane was cut at position close to the molecular weights of proteins whose expression was examined (pH2AX (CST, USA), GAPDH (ZSGB-BIO, China)).

[4] = neutral comet assay, FIGS. 5A-5B

Compound | sensitivity to TG02 (apoptosis) (Hccc-9810; 0.2 μM TG02, IDH1-mutant cholangiocarcinoma Hccc-9810 (printed Hcc-9810), compared with IDH1-WT (Hucct-1), FIGS. 2A-2B) | TG02-induced apoptosis (Hccc-9810; TG02 for 72 h, without exogenous α-KG, FIG. 4) | selective DNA damage (mutant IDH1 cancer cells) | selective cell-killing (mutant IDH1 cancer cells) | sensitivity to DNA damage induced by TG02 (Tail moment) (Hucct1^R132H/+ cells) | sensitivity to TG02 (apoptosis) (RBE) | TG02 sensitivity (apoptosis) [1] | sensitivity to DNA damage induced by TG02 (Tail moment) ([2]; 0.2 μM TG02, 48 h, HT-1080, compared with Hucct1 treated with TG02, FIG. 7A) | TG02-induced DNA damage ([2]; 48 h, neutral comet assay, FIGS. 5A-5B) | sensitivity to TG02 (apoptosis) (HT-1080) | sensitivity to DNA damage induced by TG02 (phosphorylated γH2AX) (Hucct1R132H/+ cells) | rescue of TG02-induced DNA damage (pH2AX) [3] | rescue of TG02-induced DNA damage [2, 4] | rescue of TG02-induced apoptosis (Hccc-9810; α-KG pretreatment 24 h, then TG02 for 72 h, FIG. 4)
CN1C/C=C/CCOc2cccc(c2)-c2ccnc(n2)Nc2cccc(c2)C1 [TG02, (16E)-14-methyl-20-oxa-5,7,14,27-tetraazatetracyclo[19.3.1.1^2,6. 1^8,12]heptacosa-1(25),2(27),3,5,8,10,12(26),16,21,23-decaene] | more sensitive to TG02 than IDH1-WT (Hucct-1) cells | TG02-induced apoptosis of mutant IDH1 (Hccc-9810) cells | selectively induces DNA damage and cell-killing in mutant IDH1 cancer cells relative to homozygous wild-type IDH1 cancer cells | selectively induces DNA damage and cell-killing in mutant IDH1 cancer cells relative to homozygous wild-type IDH1 cancer cells | cells with IDH1 mutation are more sensitive to DNA damage induced by TG02 | more sensitive to TG02 than IDH1-WT (Hucct-1) cells | increased TG02 sensitivity can be conferred onto IDH1-WT (Hucct-1) cells by transfection of mutated IDH1 | cells with IDH1 mutation are more sensitive to DNA damage induced by TG02 | TG02-induced DNA damage in mutant IDH1 (HT-1080) cells | more sensitive to TG02 than IDH1-WT (Hucct-1) cells | cells with IDH1 mutation are more sensitive to DNA damage induced by TG02 | – | – | –
N#Cc1ccnc(N2C(=O)CC[C@H]2C(=O)N(c2cncc(F)c2)[C@H](C(=O)NC2CC(F)(F)C2)c2ccccc2Cl)c1 [AG-120, ivosidenib] | – | – | – | – | – | – | – | – | – | – | – | TG02-induced DNA damage was rescued only in mutant IDH1 cells (Hccc-9810) | can be rescued by addition of exogenous α-KG or AG-120 | –
O=C(O)CCC(=O)C(=O)O [α-KG, α-ketoglutarate] | – | – | – | – | – | – | – | – | – | – | – | – | can be rescued by addition of exogenous α-KG or AG-120 | can be rescued by addition of exogenous substrate α-ketoglutarate (α-KG)
